Experimental data published in patent publication US6204289A, “Cembranoid inhibitors of nicotinic acetylcholine receptors” (priority 1998, dated 2001).

System: peripheral and neuronal AchRs
Assay: Inhibition of peripheral and neuronal AchRs (summary statement)
Description: Cembranoids are cyclic diterpenoids naturally present in many plants and invertebrate animals. We discovered that cembranoids inhibit both peripheral and neuronal AchRs at concentrations ranging from 10^-15 molar to 10^-4 molar; cembranoids also increase the rate of receptor desensitization. Seventeen different cembranoid analogs were tested. There are two main differences between previously known AchR inhibitors and these new cembranoid inhibitors. […] Second, cembranoids are present in tobacco leaves, and therefore potentially have an effect on nicotine action in the brains of cigarette smokers. Nicotine-induced desensitization of neuronal acetylcholine receptors is related to behavioral tolerance or addiction to nicotine (6); since cembranoids increase receptor desensitization, they are likely to increase tobacco addictive properties. Thus, by extracting the cembranoids from tobacco, this could produce less addictive cigarettes (or any tobacco related product). On the other hand, addition of cembranoids to tobacco could possibly increase its addictive properties. In addition, cembranoids displace general anesthetics from the muscle-type AchR, and so they could ameliorate the undesirable side-effects of anesthesia in patients with Myasthenia gravis.
We discovered that cembranoids isolated from gorgonian-corals inhibit both peripheral and neuronal AchRs.

Molecule	potency relative to any previously known AchR inhibitors (factor)
C=C(C(=O)O)C1CC/C(C)=C/CC/C(C)=C/CCC2(C)OC2C1 (centres unmarked) [pseudoplexauric acid]	at least 1000
eupalmerin acetate	at least 1000
